In ChEMBL document CHEMBL1129860, “Studies on penam sulfones III. Synthesis and -lactamase inhibitory activity of sodium (6R)-6-(-hydroxybenzyl)-2-methoxyiminomethyl-2-methylpenam-3-carboxylate 1,1-dioxide and sodium 2-acyl-2-methylpenam-3-carboxylate 1,1-dioxide” (1997):
Each block holds one compound with its values, some of them ahead of it.

Tests used:
Citrobacter freundii [1] = experiment: In vitro minimal inhibitory concentration (MIC) of compound in combination with Ceftazidime (CAZ) showed synergic activity against Citrobacter freundii 44032; assay type: functional
Citrobacter freundii [2] = experiment: In vitro minimal inhibitory concentration (MIC) of compound in combination with Ceftazidime (CAZ) showed synergic activity against Citrobacter freundii CT 76; assay type: functional
Klebsiella aerogenes [3] = experiment: In vitro minimal inhibitory concentration (MIC) of compound in combination with Ceftazidime (CAZ) showed synergic activity against Enterobacter aerogenes S-97; assay type: functional
Klebsiella aerogenes [4] = experiment: In vitro minimal inhibitory concentration (MIC) of compound in combination with Ceftazidime (CAZ) showed synergic activity against Enterobacter aerogenes 41003; assay type: functional
Klebsiella aerogenes [5] = experiment: In vitro minimal inhibitory concentration (MIC) of compound in combination with Ceftazidime (CAZ) showed synergic activity against Enterobacter aerogenes 41004; assay type: functional
Klebsiella aerogenes [6] = experiment: In vitro minimal inhibitory concentration (MIC) of compound in combination with Ceftazidime (CAZ) showed synergic activity against Enterobacter aerogenes 41006; assay type: functional
Enterobacter cloacae [7] = experiment: In vitro minimal inhibitory concentration (MIC) of compound in combination with Ceftazidime (CAZ) showed synergic activity against Enterobacter cloacae S-65; assay type: functional
Enterobacter cloacae [8] = experiment: In vitro minimal inhibitory concentration (MIC) of compound in combination with Ceftazidime (CAZ) showed synergic activity against Enterobacter cloacae S-11; assay type: functional
Enterobacter cloacae [9] = experiment: In vitro minimal inhibitory concentration (MIC) of compound in combination with Ceftazidime (CAZ) showed synergic activity against Enterobacter cloacae 40011; assay type: functional
Enterobacter cloacae [10] = experiment: In vitro minimal inhibitory concentration (MIC) of compound in combination with Ceftazidime (CAZ) showed synergic activity against Enterobacter cloacae E40002; assay type: functional
Enterobacter cloacae [11] = experiment: In vitro minimal inhibitory concentration (MIC) of compound in combination with Ceftazidime (CAZ) showed synergic activity against Enterobacter cloacae P99; assay type: functional
Escherichia coli [12] = experiment: In vitro minimal inhibitory concentration (MIC) of compound in combination with Ceftazidime (CAZ) showed synergic activity against Escherichia coli TEM 3; assay type: functional
Escherichia coli [13] = experiment: In vitro minimal inhibitory concentration (MIC) of compound in combination with Ceftazidime (CAZ) showed synergic activity against Escherichia coli TEM 7; assay type: functional
Klebsiella pneumoniae = experiment: In vitro minimal inhibitory concentration (MIC) of compound in combination with Ceftazidime (CAZ) showed synergic activity against Klebsiella pneumoniae CTX 1; assay type: functional
Morganella morganii [14] = experiment: In vitro minimal inhibitory concentration (MIC) of compound in combination with Ceftazidime (CAZ) showed synergic activity against Morganella morganii 36014; assay type: functional
Morganella morganii [15] = experiment: In vitro minimal inhibitory concentration (MIC) of compound in combination with Ceftazidime (CAZ) showed synergic activity against Morganella morganii 36030; assay type: functional
Pseudomonas aeruginosa [16] = experiment: In vitro minimal inhibitory concentration (MIC) of compound in combination with Ceftazidime (CAZ) showed synergic activity against Pseudomonas aeruginosa 46220 (DR-2); assay type: functional
Proteus vulgaris = experiment: In vitro minimal inhibitory concentration (MIC) of compound in combination with Ceftazidime (CAZ) showed synergic activity against Proteus vulgaris CT 106; assay type: functional
Pseudomonas aeruginosa [17] = experiment: microbe, parasite or virus in culture
Pseudomonas aeruginosa [18] = experiment: microbe, parasite or virus in culture; remark: listed apart in the source
Pseudomonas aeruginosa [19] = experiment: microbe, parasite or virus in culture; remark: listed apart in the source
Description: In vitro minimal inhibitory concentration (MIC) of compound against Pseudomonas aeruginosa CT-122 in combination with Ceftazidime (CAZ)

Pseudomonas aeruginosa [20] = experiment: microbe, parasite or virus in culture; remark: listed apart in the source
[21] = Morganella morganii, read-out: MIC

MIC (Citrobacter freundii [1]): 200 µg/mL
MIC (Citrobacter freundii [2]): 50 µg/mL
MIC (Klebsiella aerogenes [3]): 1 µg/mL
MIC (Klebsiella aerogenes [4]): 12.5 µg/mL
MIC (Klebsiella aerogenes [5]): 12.5 µg/mL
MIC (Klebsiella aerogenes [6]): 100 µg/mL
MIC (Enterobacter cloacae [7]): < 0.25 µg/mL
MIC (Enterobacter cloacae [8]): < 0.25 µg/mL
MIC (Enterobacter cloacae [9]): 3.13 µg/mL
MIC (Enterobacter cloacae [10]): 200 µg/mL
MIC (Enterobacter cloacae [11]): 12.5 µg/mL
MIC (Escherichia coli [12]): ≤ 0.2 µg/mL
MIC (Escherichia coli [13]): ≤ 0.2 µg/mL
MIC (Klebsiella pneumoniae): 0.78 µg/mL
MIC (Morganella morganii [14]): <=0.2 ug ml-1
MIC (Morganella morganii [14]; [21]): < 0.25 µg/mL
MIC (Morganella morganii [15]): < 0.25 µg/mL
MIC (Pseudomonas aeruginosa [16]): 25 µg/mL
MIC (Proteus vulgaris): 0.39 µg/mL
MIC (Pseudomonas aeruginosa [17]): 32 µg/mL
MIC (Pseudomonas aeruginosa [18]): 16 µg/mL
Structure (SMILES): CC(C)(O/N=C(\C(=O)NC1C(=O)N2C(C(=O)[O-])=C(C[n+]3ccccc3)CSC12)c1csc(N)n1)C(=O)O.C[C@]1(Cn2ccnn2)[C@H](C(=O)[O-])N2C(=O)CC2S1(=O)=O.[Na+] (stereo not drawn)

Structure (SMILES): CC(C)(O/N=C(\C(=O)N[C@@H]1C(=O)N2C(C(=O)[O-])=C(C[n+]3ccccc3)CS[C@H]12)c1csc(N)n1)C(=O)O.CC1(C)[C@H](C(=O)[O-])N2C(=O)[C@@H]([C@@H](O)c3ccccc3)[C@H]2S1(=O)=O.[Na+]
MIC (Klebsiella aerogenes [3]): 2 µg/mL
MIC (Enterobacter cloacae [7]): < 0.25 µg/mL
MIC (Enterobacter cloacae [8]): < 0.25 µg/mL
MIC (Morganella morganii [14]; [21]): < 0.25 µg/mL
MIC (Morganella morganii [15]): < 0.25 µg/mL
MIC (Pseudomonas aeruginosa [19]): 32 µg/mL
MIC (Pseudomonas aeruginosa [20]): 16 µg/mL
